# Assay results as given in paper PMC11864979, “First-in-class ultralong-target-residence-time p38α inhibitors as a mitosis-targeted therapy for colorectal cancer” (Nature Cancer, 2025).
# Like-named read-outs stand apart in the source and are kept apart here.
# Key:
# Assay in all cases: selectivity profiling in a panel of 340 wild-type kinases (Reaction Biology Europe)
# Type in all cases: binding
# 340 wild-type kinases [1] = target: T1, 340 wild-type kinases (Homo sapiens, UniProt Q9NYL2)
# T1 construct: purchased Reaction Biology Europe
# 340 wild-type kinases [2] = target: T2, 340 wild-type kinases (Homo sapiens, UniProt Q96PF2)
# T2 construct: purchased Reaction Biology Europe
# T2 sequence (Q96PF2 1-358): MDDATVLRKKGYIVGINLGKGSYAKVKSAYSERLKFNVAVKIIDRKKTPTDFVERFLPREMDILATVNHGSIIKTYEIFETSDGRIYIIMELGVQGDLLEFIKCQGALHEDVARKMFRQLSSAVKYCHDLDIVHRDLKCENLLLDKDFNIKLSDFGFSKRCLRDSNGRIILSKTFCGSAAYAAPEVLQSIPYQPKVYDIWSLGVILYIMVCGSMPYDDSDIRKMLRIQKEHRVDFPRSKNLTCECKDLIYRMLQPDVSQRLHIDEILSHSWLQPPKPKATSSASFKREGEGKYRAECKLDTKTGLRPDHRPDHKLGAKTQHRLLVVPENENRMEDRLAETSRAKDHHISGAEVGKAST
# 340 wild-type kinases [3] = target: T3, 340 wild-type kinases (Homo sapiens, UniProt P24723)
# T3 construct: purchased Reaction Biology Europe
# 340 wild-type kinases [4] = target: T4, 340 wild-type kinases (Homo sapiens, UniProt Q13237)
# T4 construct: purchased Reaction Biology Europe
# T4 sequence (Q13237 1-762): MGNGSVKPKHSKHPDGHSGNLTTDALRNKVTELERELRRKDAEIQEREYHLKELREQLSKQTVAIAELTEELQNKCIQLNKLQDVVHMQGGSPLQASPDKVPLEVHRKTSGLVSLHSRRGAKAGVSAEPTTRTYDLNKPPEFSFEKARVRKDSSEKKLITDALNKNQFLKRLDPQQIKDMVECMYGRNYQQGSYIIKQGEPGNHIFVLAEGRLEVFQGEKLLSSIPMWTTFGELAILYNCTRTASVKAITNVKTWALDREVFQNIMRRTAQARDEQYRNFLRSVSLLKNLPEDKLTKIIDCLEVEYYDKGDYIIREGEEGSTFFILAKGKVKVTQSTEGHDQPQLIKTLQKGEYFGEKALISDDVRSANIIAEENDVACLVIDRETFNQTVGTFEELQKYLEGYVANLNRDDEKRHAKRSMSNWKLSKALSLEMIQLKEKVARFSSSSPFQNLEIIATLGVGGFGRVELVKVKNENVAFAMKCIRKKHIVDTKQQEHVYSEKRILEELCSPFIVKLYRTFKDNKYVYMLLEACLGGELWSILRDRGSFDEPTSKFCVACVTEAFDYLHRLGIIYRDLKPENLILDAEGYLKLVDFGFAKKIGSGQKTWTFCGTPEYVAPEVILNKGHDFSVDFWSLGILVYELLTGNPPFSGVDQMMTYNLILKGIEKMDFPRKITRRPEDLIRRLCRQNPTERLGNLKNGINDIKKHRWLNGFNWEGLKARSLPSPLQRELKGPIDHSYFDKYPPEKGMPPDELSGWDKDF
# 340 wild-type kinases [5] = target: T5, 340 wild-type kinases (Homo sapiens, UniProt P17252)
# T5 construct: purchased Reaction Biology Europe
# 340 wild-type kinases [6] = target: T6, 340 wild-type kinases (Homo sapiens, UniProt Q99558)
# T6 construct: purchased Reaction Biology Europe
# 340 wild-type kinases [7] = target: T7, 340 wild-type kinases (Homo sapiens, UniProt Q16644)
# T7 construct: purchased Reaction Biology Europe
# 340 wild-type kinases [8] = target: T8, 340 wild-type kinases (Homo sapiens, UniProt P42345)
# T8 construct: purchased Reaction Biology Europe
# 340 wild-type kinases [9] = target: T9, 340 wild-type kinases (Homo sapiens, UniProt Q9BWU1)
# T9 construct: purchased Reaction Biology Europe
# T9 sequence (Q9BWU1 whole entry): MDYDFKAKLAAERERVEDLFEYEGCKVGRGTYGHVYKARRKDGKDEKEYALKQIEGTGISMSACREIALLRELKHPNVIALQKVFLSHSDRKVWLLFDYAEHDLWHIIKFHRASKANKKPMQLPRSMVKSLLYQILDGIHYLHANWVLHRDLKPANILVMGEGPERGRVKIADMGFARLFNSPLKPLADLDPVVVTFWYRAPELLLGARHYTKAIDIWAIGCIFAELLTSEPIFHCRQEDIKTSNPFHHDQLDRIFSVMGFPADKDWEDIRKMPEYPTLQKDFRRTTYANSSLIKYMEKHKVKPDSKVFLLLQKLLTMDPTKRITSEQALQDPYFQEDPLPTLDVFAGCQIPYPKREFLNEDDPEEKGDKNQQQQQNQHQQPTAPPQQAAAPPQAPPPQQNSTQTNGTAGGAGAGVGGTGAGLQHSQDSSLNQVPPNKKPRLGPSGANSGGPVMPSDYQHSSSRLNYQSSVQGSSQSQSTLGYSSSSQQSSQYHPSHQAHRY
# T1 sequence (Q9NYL2 whole entry): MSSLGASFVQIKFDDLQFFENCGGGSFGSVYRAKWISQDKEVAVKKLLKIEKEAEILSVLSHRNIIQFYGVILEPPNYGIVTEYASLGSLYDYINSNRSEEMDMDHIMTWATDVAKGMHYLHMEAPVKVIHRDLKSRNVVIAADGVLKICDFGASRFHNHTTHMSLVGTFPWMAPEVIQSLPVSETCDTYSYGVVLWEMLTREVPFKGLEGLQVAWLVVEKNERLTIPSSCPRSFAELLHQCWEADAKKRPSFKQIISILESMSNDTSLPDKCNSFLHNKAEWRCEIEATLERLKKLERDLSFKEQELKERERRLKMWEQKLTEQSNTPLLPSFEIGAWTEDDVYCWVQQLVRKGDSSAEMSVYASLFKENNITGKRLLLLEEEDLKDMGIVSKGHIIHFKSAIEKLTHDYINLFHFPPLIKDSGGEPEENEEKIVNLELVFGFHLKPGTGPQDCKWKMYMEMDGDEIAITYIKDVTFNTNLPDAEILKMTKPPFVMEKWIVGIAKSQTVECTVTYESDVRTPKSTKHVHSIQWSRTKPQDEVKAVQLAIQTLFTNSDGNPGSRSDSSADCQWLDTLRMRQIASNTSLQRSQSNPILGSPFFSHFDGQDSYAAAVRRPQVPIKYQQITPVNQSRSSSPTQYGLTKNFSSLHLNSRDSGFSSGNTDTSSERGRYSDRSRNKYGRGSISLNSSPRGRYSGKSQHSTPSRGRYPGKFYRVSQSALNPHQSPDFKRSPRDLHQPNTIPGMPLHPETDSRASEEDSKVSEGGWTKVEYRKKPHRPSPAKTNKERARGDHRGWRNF
# T3 sequence (P24723 whole entry): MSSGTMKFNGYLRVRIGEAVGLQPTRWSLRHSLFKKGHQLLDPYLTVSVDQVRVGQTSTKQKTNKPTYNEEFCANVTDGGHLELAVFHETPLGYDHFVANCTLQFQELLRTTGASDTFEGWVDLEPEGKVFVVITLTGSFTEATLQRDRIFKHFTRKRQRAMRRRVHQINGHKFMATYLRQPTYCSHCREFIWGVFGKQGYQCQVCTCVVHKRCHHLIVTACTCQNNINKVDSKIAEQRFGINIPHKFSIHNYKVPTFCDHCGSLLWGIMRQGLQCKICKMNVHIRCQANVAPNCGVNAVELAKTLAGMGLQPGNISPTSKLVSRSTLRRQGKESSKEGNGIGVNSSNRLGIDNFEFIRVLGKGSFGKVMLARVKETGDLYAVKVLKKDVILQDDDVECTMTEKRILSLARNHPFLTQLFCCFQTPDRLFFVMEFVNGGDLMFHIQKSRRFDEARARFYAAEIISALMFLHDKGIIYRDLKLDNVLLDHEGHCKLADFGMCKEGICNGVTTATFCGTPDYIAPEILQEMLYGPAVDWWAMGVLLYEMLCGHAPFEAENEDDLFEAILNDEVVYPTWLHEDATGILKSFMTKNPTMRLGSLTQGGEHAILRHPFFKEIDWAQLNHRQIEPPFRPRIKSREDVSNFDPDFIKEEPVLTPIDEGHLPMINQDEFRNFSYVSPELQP
# T6 sequence (Q99558 whole entry): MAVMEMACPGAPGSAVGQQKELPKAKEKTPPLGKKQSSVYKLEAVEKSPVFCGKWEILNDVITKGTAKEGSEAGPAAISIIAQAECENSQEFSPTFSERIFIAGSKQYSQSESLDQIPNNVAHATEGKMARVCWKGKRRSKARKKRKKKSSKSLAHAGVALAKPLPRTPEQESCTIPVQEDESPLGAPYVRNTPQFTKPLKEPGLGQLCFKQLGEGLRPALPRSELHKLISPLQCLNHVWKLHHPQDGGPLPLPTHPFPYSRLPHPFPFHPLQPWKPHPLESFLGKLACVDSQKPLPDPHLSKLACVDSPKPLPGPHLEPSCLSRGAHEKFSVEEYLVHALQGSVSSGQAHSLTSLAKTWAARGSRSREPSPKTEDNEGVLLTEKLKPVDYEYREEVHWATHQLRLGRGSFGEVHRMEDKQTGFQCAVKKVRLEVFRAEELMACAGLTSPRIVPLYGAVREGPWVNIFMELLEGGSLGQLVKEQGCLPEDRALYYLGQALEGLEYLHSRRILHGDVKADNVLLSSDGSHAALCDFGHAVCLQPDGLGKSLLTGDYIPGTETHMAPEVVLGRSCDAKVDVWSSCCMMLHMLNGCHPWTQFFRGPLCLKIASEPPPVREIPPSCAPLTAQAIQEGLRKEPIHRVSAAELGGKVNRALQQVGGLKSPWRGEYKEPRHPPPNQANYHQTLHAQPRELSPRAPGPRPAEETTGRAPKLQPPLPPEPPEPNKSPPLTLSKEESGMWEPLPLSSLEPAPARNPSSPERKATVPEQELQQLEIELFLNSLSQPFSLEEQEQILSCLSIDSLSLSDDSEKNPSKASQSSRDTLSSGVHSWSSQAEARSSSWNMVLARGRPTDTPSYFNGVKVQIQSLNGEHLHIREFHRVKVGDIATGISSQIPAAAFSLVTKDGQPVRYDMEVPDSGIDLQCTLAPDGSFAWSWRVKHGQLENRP
# T7 sequence (Q16644 whole entry): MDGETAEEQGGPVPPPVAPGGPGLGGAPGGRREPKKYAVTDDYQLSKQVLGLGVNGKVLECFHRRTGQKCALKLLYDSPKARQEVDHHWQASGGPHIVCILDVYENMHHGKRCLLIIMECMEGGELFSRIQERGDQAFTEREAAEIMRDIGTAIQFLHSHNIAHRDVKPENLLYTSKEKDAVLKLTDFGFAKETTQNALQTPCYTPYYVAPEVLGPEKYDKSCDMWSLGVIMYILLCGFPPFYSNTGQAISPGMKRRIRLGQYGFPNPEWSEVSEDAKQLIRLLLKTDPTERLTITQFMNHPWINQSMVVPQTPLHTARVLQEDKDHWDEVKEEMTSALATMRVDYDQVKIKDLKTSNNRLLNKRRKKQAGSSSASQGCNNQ
compound,measurement,setting,value
CNC(=O)c1ccc2c(c1)C(=O)c1ccc(Nc3ccc(F)c(NC(=O)C4CC4)c3)cc1CC2 [Compound 2015],remaining activity at 0.2 µM,"340 wild-type kinases [1]; 0.2 µM 2015, read-out: ZAK residual activity",110%
same,remaining activity at 1 µM,"340 wild-type kinases [1]; 1 µM 2015, read-out: ZAK residual activity",104%
same,remaining activity at 0.2 µM,"340 wild-type kinases [1]; ZAK, 0.2 µM, read-out: residual activity",110%
same,remaining activity at 1 µM,"340 wild-type kinases [1]; ZAK, 1 µM, read-out: residual activity",104%
same,remaining activity at 0.2 µM,"340 wild-type kinases [2]; 0.2 µM 2015, read-out: TSK2 residual activity",104%
same,remaining activity at 1 µM,"340 wild-type kinases [2]; 1 µM 2015, read-out: TSK2 residual activity",106%
same,remaining activity at 0.2 µM,"340 wild-type kinases [2]; TSK2, 0.2 µM, read-out: residual activity",104%
same,remaining activity at 1 µM,"340 wild-type kinases [2]; TSK2, 1 µM, read-out: residual activity",106%
same,remaining activity at 0.2 µM,"340 wild-type kinases [3]; 0.2 µM 2015, read-out: PKCeta residual activity",80.3%
same,remaining activity at 1 µM,"340 wild-type kinases [3]; 1 µM 2015, read-out: PKCeta residual activity",90.1%
same,remaining activity at 0.2 µM,"340 wild-type kinases [3]; PKCeta, 0.2 µM, read-out: residual activity",80.3%
same,remaining activity at 1 µM,"340 wild-type kinases [3]; PKCeta, 1 µM, read-out: residual activity",90.1%
same,remaining activity at 0.2 µM,"340 wild-type kinases [4]; 0.2 µM 2015, read-out: PRKG2 residual activity",112%
same,remaining activity at 1 µM,"340 wild-type kinases [4]; 1 µM 2015, read-out: PRKG2 residual activity",96.9%
same,remaining activity at 0.2 µM,"340 wild-type kinases [4]; PRKG2, 0.2 µM, read-out: residual activity",112%
same,remaining activity at 1 µM,"340 wild-type kinases [4]; PRKG2, 1 µM, read-out: residual activity",96.9%
same,remaining activity at 0.2 µM,"340 wild-type kinases [5]; 0.2 µM 2015, read-out: PKCalpha residual activity",118%
same,remaining activity at 1 µM,"340 wild-type kinases [5]; 1 µM 2015, read-out: PKCalpha residual activity",98.8%
same,remaining activity at 0.2 µM,"340 wild-type kinases [5]; PKCalpha, 0.2 µM, read-out: residual activity",118%
same,remaining activity at 1 µM,"340 wild-type kinases [5]; PKCalpha, 1 µM, read-out: residual activity",98.8%
same,remaining activity at 0.2 µM,"340 wild-type kinases [6]; 0.2 µM 2015, read-out: NIK residual activity",113%
same,remaining activity at 1 µM,"340 wild-type kinases [6]; 1 µM 2015, read-out: NIK residual activity",90.5%
same,remaining activity at 0.2 µM,"340 wild-type kinases [6]; NIK, 0.2 µM, read-out: residual activity",113%
same,remaining activity at 1 µM,"340 wild-type kinases [6]; NIK, 1 µM, read-out: residual activity",90.5%
same,remaining activity at 0.2 µM,"340 wild-type kinases [7]; 0.2 µM 2015, read-out: MAPKAPK3 residual activity",97.3%
same,remaining activity at 1 µM,"340 wild-type kinases [7]; 1 µM 2015, read-out: MAPKAPK3 residual activity",86.1%
same,remaining activity at 0.2 µM,"340 wild-type kinases [7]; MAPKAPK3, 0.2 µM, read-out: residual activity",97.3%
same,remaining activity at 1 µM,"340 wild-type kinases [7]; MAPKAPK3, 1 µM, read-out: residual activity",86.1%
same,remaining activity at 0.2 µM,"340 wild-type kinases [8]; 0.2 µM 2015, read-out: MTOR residual activity",97.9%
same,remaining activity at 1 µM,"340 wild-type kinases [8]; 1 µM 2015, read-out: MTOR residual activity",101%
same,remaining activity at 0.2 µM,"340 wild-type kinases [8]; MTOR, 0.2 µM, read-out: residual activity",97.9%
same,remaining activity at 1 µM,"340 wild-type kinases [8]; MTOR, 1 µM, read-out: residual activity",101%
same,remaining activity at 0.2 µM,"340 wild-type kinases [9]; 0.2 µM 2015, read-out: CDK19/CycC residual activity",99.8%
same,remaining activity at 1 µM,"340 wild-type kinases [9]; 1 µM 2015, read-out: CDK19/CycC residual activity",96.4%
same,remaining activity at 0.2 µM,"340 wild-type kinases [9]; CDK19/CycC, 0.2 µM, read-out: residual activity",99.8%
same,remaining activity at 1 µM,"340 wild-type kinases [9]; CDK19/CycC, 1 µM, read-out: residual activity",96.4%
